For one data set, the system named is cell cytotoxicity. The following applies: screen of Acacia victoriae compounds; U.S. Pat. No. 6,444,233; cited from earlier work.
Data set [1] has as its system NF-κB. Nature of the data set: Inhibition of NF-κB activation (FIG. 2A). The following applies: compared with dexamethasone. In kind it is cell-based.
A further data set deals with IL-6. Description: Expression of constitutive and TNF-induced IL-6 (FIG. 2B). In kind it is cell-based.
Data set [2] concerns NF-κB. Nature of the data set: TNF-induced p(IL6-κB)350hu.IL6P-Luc luciferase reporter in HEK 293T cells with and without GR (FIG. 3). In kind it is cell-based. An excerpt: FIG. 3 is graph showing the expression of glucocorticoid receptor (GR) in HEK293T cells with and without GR.
However, TNF-induced activation of p(IL6-κB)350hu.IL6P-Luc was inhibited by both avicin D and Dex in HEK 293T cells transfected with GR (FIG. 3). […] This observation supports the notion that avicins are not able to induce GR transactivation.
In general terms: A reporter such as luciferase makes a cellular process visible.

The target in data set [3] is T1, glucocorticoid receptor (GR) (Homo sapiens, UniProt P04150).
T1 sequence (P04150 1-777): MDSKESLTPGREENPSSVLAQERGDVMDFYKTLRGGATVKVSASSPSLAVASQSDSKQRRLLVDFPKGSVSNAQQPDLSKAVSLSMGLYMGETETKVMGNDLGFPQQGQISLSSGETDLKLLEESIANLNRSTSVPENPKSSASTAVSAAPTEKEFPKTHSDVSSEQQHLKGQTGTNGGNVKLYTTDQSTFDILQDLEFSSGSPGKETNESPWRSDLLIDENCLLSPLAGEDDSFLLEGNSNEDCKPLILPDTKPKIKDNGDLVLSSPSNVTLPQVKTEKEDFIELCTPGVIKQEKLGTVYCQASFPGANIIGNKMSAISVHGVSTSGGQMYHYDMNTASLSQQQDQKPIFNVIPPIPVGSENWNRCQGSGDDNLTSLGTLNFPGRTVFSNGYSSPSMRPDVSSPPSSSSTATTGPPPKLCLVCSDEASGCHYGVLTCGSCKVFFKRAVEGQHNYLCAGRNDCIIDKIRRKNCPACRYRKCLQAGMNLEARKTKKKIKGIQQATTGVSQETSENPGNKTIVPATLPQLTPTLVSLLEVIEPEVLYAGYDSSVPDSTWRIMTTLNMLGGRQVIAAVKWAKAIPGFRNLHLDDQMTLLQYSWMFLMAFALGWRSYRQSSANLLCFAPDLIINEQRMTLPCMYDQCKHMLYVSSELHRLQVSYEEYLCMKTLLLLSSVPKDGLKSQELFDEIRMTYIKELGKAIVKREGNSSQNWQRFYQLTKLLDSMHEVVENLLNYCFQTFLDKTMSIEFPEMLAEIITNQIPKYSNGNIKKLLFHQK
Nature of the data set: Phosphorylation of GR Ser-211 (FIG. 4). Type of data set: cell-based. The following applies: even after 16 hours.

A further data set relates to 3T3-L1 cells. Description: Adipogenesis in 3T3-L1 cells. Type of data set: cell-based.
A further data set has as its system human preadipocytes. Nature of the data set: Differentiation of human preadipocytes to mature adipocytes. Type of data set: cell-based.
A further data set deals with chemotaxis. Description: Inhibition of chemotaxis. In kind it is cell-based. The following applies: preliminary data. An excerpt:
The compositions described herein contain an effective amount of the one or more avicin derivatives. The amount to be administered can be readily determined by the attending physician based on a variety of factors including, but not limited to, age of the patient, weight of the patient, disease or disorder to be treated, presence of a pre-existing condition, and dosage form to be administered (e.g., immediate release versus modified release dosage form). Typically, the effective amount is from about 0.1 mg/kg/day to about 100 mg/kg/day, more preferably from 0.1 mg/kg/day to 50 mg/kg/day, more preferably from 0.1 mg/kg/day to 25 mg/kg/day, and most preferably from 0.1 mg/kg/day to 10 mg/kg/day. Dosages greater or less than this may be administered depending on the diseases or disorder to be treated.

The test system of data set [4] is NF-κB. The following applies: redox-dependant manner; cited from earlier work.
Data set [5] deals with NF-E2-related factor 2 (Nrf2). The following applies: redox-dependant manner; cited from earlier work.

On to `C=C[C@](C)(O)CC/C=C(\C)C(=O)O[C@H]1[C@H](O)[C@@H](O)[C@H](O[C@@](C)(C=C)CC/C=C(\CO)C(=O)O[C@H]2C[C@]3(C(=O)O[C@@H]4O[C@H](CO)[C@@H](O)[C@H](O)[C@H]4O[C@@H]4O[C@@H](C)[C@H](O[C@@H]5O[C@@H](CO)[C@H](O)[C@H]5O)[C@@H](O[C@@H]5O[C@H](CO)[C@@H](O)[C@H](O)[C@H]5O)[C@H]4O)[C@H](O)C[C@]4(C)C(=CC[C@@H]5[C@@]6(C)CC[C@H](O[C@@H]7O[C@H](CO[C@@H]8O[C@H](C)[C@H](O)[C@H](O)[C@H]8O[C@@H]8OC[C@@H](O)[C@H](O)[C@H]8O)[C@@H](O)[C@H](O)[C@H]7NC(C)=O)C(C)(C)[C@@H]6CC[C@]54C)[C@@H]3CC2(C)C)O[C@@H]1C` [avicin G], for which the “induction of cell cytotoxicity” value in the data set with cell cytotoxicity was “significant activity”.
Consider `C=C[C@](C)(O)CC/C=C(\CO)C(=O)O[C@H]1[C@H](O)[C@@H](O)[C@H](O[C@@](C)(C=C)CC/C=C(\CO)C(=O)O[C@H]2C[C@]3(C(=O)O[C@@H]4O[C@H](CO)[C@@H](O)[C@H](O)[C@H]4O[C@@H]4O[C@@H](C)[C@H](O[C@@H]5O[C@@H](CO)[C@H](O)[C@H]5O)[C@@H](O[C@@H]5O[C@H](CO)[C@@H](O)[C@H](O)[C@H]5O)[C@H]4O)[C@H](O)C[C@]4(C)C(=CC[C@@H]5[C@@]6(C)CC[C@H](O[C@@H]7O[C@H](CO[C@@H]8O[C@H](C)[C@H](O)[C@H](O)[C@H]8O[C@@H]8OC[C@@H](O)[C@H](O)[C@H]8O)[C@@H](O)[C@H](O)[C@H]7NC(C)=O)C(C)(C)[C@@H]6CC[C@]54C)[C@@H]3CC2(C)C)O[C@@H]1C` [Avicin D], for which the “activation of NF-κB” value in the data set on NF-κB [1] is listed as “inhibits activation of NF-κB in a similar manner to dexamethasone”. For the same compound, in the data set on IL-6, the “expression of constitutive and TNF-induced IL-6” value is “suppresses the expression of both constituitive and TNF-induced IL-6”. Besides, the “TNF-induced activation of p(IL6-κB)350hu.IL6P-Luc” value with NF-κB [2] (HEK 293T cells transfected with GR) was “inhibited”. Besides, the luciferase activity result with NF-κB [2] (wild type HEK 293T cells (without GR)) is “neither avicin D nor dexamethasone had an effect”. Besides, in data set [3], the “phosphorylation of Ser-211” value is “does not enhance phosphorylation of Ser-211”. Further, in the data set with 3T3-L1 cells, the “PKA-mediated CREB activity” value is listed as “inhibited PKA-mediated CREB activity”; the “adipolysis and adipocyte apoptosis” value is reported as “did not affect”; the preadipocyte differentiation entry was “suppressed preadipocyte differentiation”. Besides, in the data set on 3T3-L1 cells (3T3-L1 cells), the adipogenesis result is on record as “inhibit adipogenesis” and the intracellular triglyceride level entry is on record as “reduce intracellular triglyceride level in a dose-dependent manner”. In the data set with 3T3-L1 cells (in adipocytes), the “expression and secretion of adiponectin” value is “increased the expression and secretion of adiponectin”. Also, in the data set with human preadipocytes, the “differentiation of human preadipocytes to mature adipocytes” value is on record as “inhibited the differentiation of human preadipocytes to mature adipocytes” and the intracellular triglyceride levels entry was “reduced intracellular triglyceride levels”. In addition, the inhibition of chemotaxis result with chemotaxis is “effective at inhibiting chemotaxis at picomolar and nanomolar concentrations”. Moreover, the “induction of cell cytotoxicity” value in the data set on cell cytotoxicity was “significant activity”. Further, the NF-κB inhibition result in the data set with NF-κB [4] was “inhibit NF-κB”. The Nrf2 activation entry in data set [5] is reported as “activate NF-E2-related factor 2 (Nrf2)”.

Source of the values: patent publication US20140179624A1, “CYTOPROTECTIVE DERIVATIVES OF AVICIN D AND METHODS OF MAKING AND USING THEREOF” (Research Development Foundation, priority 2012, published 2014).
